Test results: US20090270350A1, “Pyridinone Pyrazole Urea and Pyrimidinone Pyrazole Urea Derivatives” (PFIZER INC., priority 2006, published 2009)

Molecular target: p38α (Homo sapiens, UniProt Q16539)
Assay: p38α/MK2 cascade assay
Assay type: biochemical
Settings: Table 1; inhibitors preincubated with p38α for 40 minutes; phosphorylation of Hsp27 peptide by MK-2, Caliper LabChip 3000; read-out: p38a/MK2 Cascade 40 min Pre-Incuabtion (% Inhibition): IC50
Method: The ability of compounds to inhibit activated p38α was determined in a p38α/MK-2 cascade assay format. The kinase activity of p38α is determined by its ability to phosphorylate/activate nonactive MK2 (54-400). Activation of MK-2 by p38α is measured by following the phosphorylation of a MK-2 specific peptide, Hsp27 peptide (FITC-KKKALSRQLSVAA). The phosphorylation of the Hsp27 peptide was quantified using the Caliper LabChip 3000. The kinase reactions were carried out in 20 mM HEPES pH 7.5, 10 mM MgCl2, 0.0005% Tween-20, 0.01% BSA, 1 mM DTT, and 2% DMSO. The inhibitors were varied between 1000-0.05 nM, while the Hsp27 peptide substrate, MgATP, and nonactive MK-2 (54-400) were held constant at 0.5 µM, 5 µM, and 1 nM, respectively. Inhibitors were preincubated with p38α for 40 minutes prior to initiating the reaction with peptide, MgATP, and MK-2. The kinase reactions were quenched after 60 minutes by the addition of stop buffer (180 mM HEPES, 30 mM EDTA, and 0.2% Coating Reagent-3).
The above protocol assay was used to determine the IC50 values for some of the compounds in the above Examples.
IC50 values were determined for the compounds listed in Table 2, using the same p38α/MK2 cascade assay used to determine the IC50 values for the compounds in Table 1. The compounds of Table 2 were prepared using methods similar to those listed in the Examples for compounds of Table 1.

p38α, sequence (Q16539 whole entry): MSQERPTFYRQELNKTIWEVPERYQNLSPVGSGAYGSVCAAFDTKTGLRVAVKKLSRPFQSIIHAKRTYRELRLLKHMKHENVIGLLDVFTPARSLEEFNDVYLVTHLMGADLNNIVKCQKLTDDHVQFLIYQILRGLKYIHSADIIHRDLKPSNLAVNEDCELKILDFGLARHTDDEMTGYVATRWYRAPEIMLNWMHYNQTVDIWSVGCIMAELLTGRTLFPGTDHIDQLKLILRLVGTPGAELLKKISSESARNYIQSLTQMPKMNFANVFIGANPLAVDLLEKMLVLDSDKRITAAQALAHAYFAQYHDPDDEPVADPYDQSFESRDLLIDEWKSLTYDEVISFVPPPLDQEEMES

SMILES	IC50 [nM]
COc1cccc(-n2nc(C(C)(C)C)cc2NC(=O)NCc2ccccc2COc2cc(C)n(Cc3ccccc3)c(=O)c2Br)c1 [Example 109, 1-(2-{[(1-benzyl-3-bromo-6-methyl-2-oxo-1,2-dihydropyridin-4-yl)oxy]methyl}benzyl)-3-[3-tert-butyl-1-(3-methoxyphenyl)-1H-pyrazol-5-yl]urea]	6.38
CCc1c(OCc2ccccc2CNC(=O)Nc2cc(C(C)(C)C)nn2-c2ccc(C)cc2)ncn(Cc2ccccc2)c1=O [Example 110, 1-(2-{[(1-benzyl-5-ethyl-6-oxo-1,6-dihydropyrimidin-4-yl)oxy]methyl}benzyl)-3-[3-tert-butyl-1-(4-methylphenyl)-1H-pyrazol-5-yl]urea]	14.4
CCc1c(OCc2ccccc2CNC(=O)Nc2cc(C(C)(C)C)nn2-c2ccccc2)ncn(Cc2ccccc2)c1=O [Example 113, 1-(2-{[(1-benzyl-5-ethyl-6-oxo-1,6-dihydropyrimidin-4-yl)oxy]methyl}benzyl)-3-(3-tert-butyl-1-phenyl-1H-pyrazol-5-yl)urea]	10
CCc1c(OCc2ccccc2CNC(=O)Nc2cc(C(C)(C)C)nn2-c2ccc(C)cc2)ncn(Cc2ccc(OC)cc2)c1=O [Example 114, 1-[3-tert-butyl-1-(4-methylphenyl)-1H-pyrazol-5-yl]-3-[2-({[5-ethyl-1-(4-methoxybenzyl)-6-oxo-1,6-dihydropyrimidin-4-yl]oxy}methyl)benzyl]urea]	16.3
CCc1c(OCc2ccccc2CNC(=O)Nc2cc(C(C)(C)C)nn2-c2cccc(OC)c2)ncn(Cc2ccc(OC)cc2)c1=O [Example 115, 1-[3-tert-butyl-1-(3-methoxyphenyl)-1H-pyrazol-5-yl]-3-[2-({[5-ethyl-1-(4-methoxybenzyl)-6-oxo-1,6-dihydropyrimidin-4-yl]oxy}methyl)benzyl]urea]	25.8
CCc1c(OCc2ccccc2CNC(=O)Nc2cc(C(C)(C)C)nn2-c2cccc(F)c2)ncn(Cc2ccc(OC)cc2)c1=O [Example 116, 1-[3-tert-butyl-1-(3-fluorophenyl)-1H-pyrazol-5-yl]-3-[2-({[5-ethyl-1-(4-methoxybenzyl)-6-oxo-1,6-dihydropyrimidin-4-yl]oxy}methyl)benzyl]urea]	10.1
COc1ccc(Cn2c(C)cc(OCc3ccccc3CNC(=O)Nc3cc(C(C)(C)C)nn3-c3cccc(F)c3)c(Br)c2=O)c(OC)c1 [Example 117, 1-[2-({[3-bromo-1-(2,4-dimethoxybenzyl)-6-methyl-2-oxo-1,2-dihydropyridin-4-yl]oxy}methyl)benzyl]-3-[3-tert-butyl-1-(3-fluorophenyl)-1H-pyrazol-5-yl]urea]	15.7
COc1cccc(-n2nc(C(C)(C)C)cc2NC(=O)NCc2ccccc2COc2cc(C)n(Cc3ccc(OC)cc3OC)c(=O)c2Br)c1 [Example 119, 1-[2-({[3-bromo-1-(2,4-dimethoxybenzyl)-6-methyl-2-oxo-1,2-dihydropyridin-4-yl]oxy}methyl)benzyl]-3-[3-tert-butyl-1-(3-methoxyphenyl)-1H-pyrazol-5-yl]urea]	11.9
COc1ccc(Cn2c(C)cc(OCc3ccccc3CNC(=O)Nc3cc(C(C)(C)C)nn3-c3ccccc3)c(Br)c2=O)c(OC)c1 [Example 120, 1-[2-({[3-bromo-1-(2,4-dimethoxybenzyl)-6-methyl-2-oxo-1,2-dihydropyridin-4-yl]oxy}methyl)benzyl]-3-(3-tert-butyl-1-phenyl-1H-pyrazol-5-yl)urea]	15.5
COc1ccc(Cn2c(C)cc(OCc3ccccc3CNC(=O)Nc3cc(C(C)(C)C)nn3-c3ccc(F)cc3F)c(Br)c2=O)c(OC)c1 [Example 121, 1-[2-({[3-bromo-1-(2,4-dimethoxybenzyl)-6-methyl-2-oxo-1,2-dihydropyridin-4-yl]oxy}methyl)benzyl]-3-[3-tert-butyl-1-(2,4-difluorophenyl)-1H-pyrazol-5-yl]urea]	11
